Experimental data published in PubChem BioAssay AID2060348 (Molecular Pharmacology Branch, DTP, NCI, 2025).
Several values for one entry are separate records, joined by “and”; a condition that tells them apart may be missing. Equal entries are not always repeated.

System: 885724-159-R-J1-PDC spheroids viability
Assay: Anticancer human tumor 885724-159-R-J1-PDC patient-derived pancreatic adenocarcinoma cell line growth inhibition [TAK]
Settings: spheroids with HUVEC and MSC; for viability, T/C: stronger effect = lower value; active = viability on the fitted dose curve at most 10% of control; inactive = the rest
Text: Combinatorial screen of targeted agents with TAK-243 and ipatasertib in multi-cell type tumor spheroids
A high-throughput screen of multi-cell type tumor spheroids was designed to identify active combinations of targeted small molecules and TAK-243 or ipatasertib. Complex spheroids include a stromal component modeled by human endothelial cells (HUVEC) and fibroblasts modeled by human mesenchymal stem cells (MSCs). The concentration ranges selected for each drug and investigational agent were based upon clinically achievable concentrations if the clinical Cmax of the agent was known.
Compounds. The drugs and investigational agents: TAK-243 (785004), ipatasertib (767898), everolimus (733504), selumetinib (741078), bortezomib (756655), trametinib (758246), ixazomib (758254), vemurafenib (761431), dabrafenib (764134), sapanisertib (764658), alpelisib (765974), and copanlisib (816437), were obtained from the National Cancer Institute (NCI) Developmental Therapeutics Program Chemical Repository. The FDA-approved anticancer drug set is available from the NCI Developmental Therapeutics Program. […] The stock solutions were prepared in dimethyl sulfoxide (DMSO, Sigma-Aldrich, St. Louis, MO, cat. D2650) at 800-fold the tested concentration and stored at -70 degrees C prior to their use. All drugs and investigational agents were tested over a range starting from a high concentration at or near the clinical Cmax and decreasing in half-log increments. If the clinical Cmax for an agent had not been determined, the highest concentration tested was 10 microM.
NCI60 Cell Culture. NCI60 cell lines were obtained from the NCI Developmental Therapeutics Program Tumor Repository. For each lot of cells, the Repository performed Applied Biosystems AmpFLSTR Identifiler testing with PCR amplification to confirm consistency with the published Identifier STR profile for each cell line. Cells were kept in continuous culture for no more than 20 passages. The optimal seeding densities for each of the cell lines at each time point assessed were determined prior to performing the concentration response studies. Briefly, the NCI60 human tumor lines were grown as monolayers in RPMI 1640 medium supplemented with 10% FBS and 2 mmol/L L-glutamine.
An additional 2 lines were from the NCI60 cell line panel including melanomas, MALME-3M and SK-MEL-2. Pooled donor human umbilical vein endothelial cells (HUVEC, Lonza, cat. CC-2519) and human mesenchymal stem cells (hMSC, Lonza, cat. PT-2501) were purchased from Lonza (Walkersville, MD).
PDMR cell lines were grown in complete medium (DC medium): Dulbecco's modified Eagle's medium (DMEM)/F12 supplemented with 5% fetal bovine serum (FBS), 2 mM L-glutamine, 100 U/mL penicillin and 100 µg/ml streptomycin, 0.4 µg/ml hydrocortisone, 10 ng/ml epidermal growth factor (EGF) recombinant human protein, 24 µg/mL adenine, and 0.1 mg/mL primocin. During culture from frozen stock vials, PDMR cells were cultured in the same medium containing 10 µM Y-27632 (see Table 3). The PDCs were cultured in complete DMEM/F12 media without 10 microM Y-27632 dihydrochloride for at least two passages prior to the screen. The pooled donor HUVEC and hMSC were cultured in endothelial cell growth medium 2 (PromoCell, Heidelberg, Germany, cat. C-22011) and mesenchymal stem cell growth medium 2 (PromoCell, cat. C-28009), respectively. For all experiments, HUVEC and hMSC were used at passages </=5.
For the pre-screen, cell seeding densities were determined from a titration spanning the range from 5,000 to 313 cells per well. The mct-spheroids including 60% malignant cells, 25% HUVEC and 15% MSC dispensed as a mixture into U-bottom Ultra-Low Attachment 384-well plates (Corning, NY)
High-throughput Drug Combination Screening.
Prior to their inoculation into 384-well plates, malignant cells, HUVEC, and hMSC were removed from T flasks using TrypLE express (Thermo Fisher Scientific, cat. 12605036) and harvested by centrifugation for 5 min at 233 x g. […]
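Also: spheroids exposed to drugs for seven days.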

COC1CC2CCC(C)C(O)(O2)C(=O)C(=O)N2CCCCC2C(=O)OC(C(C)CC2CCC(OCCO)C(OC)C2)CC(=O)C(C)C=C(C)C(O)C(OC)C(=O)C(C)CC(C)C=CC=CC=C1C (configuration not stated) + CC(C)NCC(C(=O)N1CCN(c2ncnc3c2C(C)CC3O)CC1)c1ccc(Cl)cc1
inactive: viability, T/C (second compound 0.3 µM, first compound 0.000316 µM) 68.2% | viability, T/C (second compound 0.3 µM, first compound 0.001 µM) 62.3% | viability, T/C (second compound 0.3 µM, first compound 0.00316 µM) 62.3% | viability, T/C (second compound 0.3 µM, first compound 0.01 µM) 58.5% | viability, T/C (second compound 0.3 µM, first compound 0.0316 µM) 57.4% | viability, T/C (second compound 0.3 µM, first compound 0.1 µM) 56.3% | viability, T/C (second compound 0.949 µM, first compound 0.000316 µM) 63.1% | viability, T/C (second compound 0.949 µM, first compound 0.001 µM) 58.5% | viability, T/C (second compound 0.949 µM, first compound 0.00316 µM) 56.4% | viability, T/C (second compound 0.949 µM, first compound 0.01 µM) 59.3% | viability, T/C (second compound 0.949 µM, first compound 0.0316 µM) 58.4% | viability, T/C (second compound 0.949 µM, first compound 0.1 µM) 61.2% | viability, T/C (second compound 3 µM, first compound 0.000316 µM) 60.5% | viability, T/C (second compound 3 µM, first compound 0.001 µM) 60.4% | viability, T/C (second compound 3 µM, first compound 0.00316 µM) 53.3% | viability, T/C (second compound 3 µM, first compound 0.01 µM) 50.7% | viability, T/C (second compound 3 µM, first compound 0.0316 µM) 52.5% | viability, T/C (second compound 3 µM, first compound 0.1 µM) 46.2% | viability, T/C (second compound 9.49 µM, first compound 0.000316 µM) 48.2% | viability, T/C (second compound 9.49 µM, first compound 0.001 µM) 49.6% | viability, T/C (second compound 9.49 µM, first compound 0.00316 µM) 47.3% | viability, T/C (second compound 9.49 µM, first compound 0.01 µM) 41.4% | viability, T/C (second compound 9.49 µM, first compound 0.0316 µM) 42.5% | viability, T/C (second compound 9.49 µM, first compound 0.1 µM) 39.4% | viability, T/C (second compound 30 µM, first compound 0.000316 µM) 31.3% | viability, T/C (second compound 30 µM, first compound 0.001 µM) 27.5% | viability, T/C (second compound 30 µM, first compound 0.00316 µM) 27.5% | viability, T/C (second compound 30 µM, first compound 0.01 µM) 23.8% | viability, T/C (second compound 30 µM, first compound 0.0316 µM) 29.3% | viability, T/C (second compound 30 µM, first compound 0.1 µM) 25.5%
> 100 nM: IC50 (curve of first compound, second compound 0.3 µM) | IC50 (curve of first compound, second compound 0.949 µM)
< 0.316 nM: IC50 (curve of first compound, second compound 9.49 µM) | IC50 (curve of first compound, second compound 30 µM)
28.3 nM: IC50 (curve of first compound, second compound 3 µM)

COc1c(OCCCN2CCOCC2)ccc2c3n(c(=NC(=O)c4cnc(N)nc4)nc12)CCN3
26.7 nM and 23.3 nM: IC50 (curve of compound)
inactive: viability, T/C (compound 0.00316 µM) 92.1% and 84.8% | viability, T/C (compound 0.01 µM) 69.9% and 64.1% | viability, T/C (compound 0.0316 µM) 47.1% and 47.6% | viability, T/C (compound 0.1 µM) 27.9% and 22.6% | viability, T/C (compound 0.316 µM) 14% and 13.8% | viability, T/C (compound 1 µM) 12.1% and 12%
